Assays:
Assay type in all cases: biochemical
PKCz = target: T1, PKCz (Homo sapiens, UniProt Q05513); assay: Activity against various protein tyrosine kinases: PKCz
T1 sequence (Q05513 1-592): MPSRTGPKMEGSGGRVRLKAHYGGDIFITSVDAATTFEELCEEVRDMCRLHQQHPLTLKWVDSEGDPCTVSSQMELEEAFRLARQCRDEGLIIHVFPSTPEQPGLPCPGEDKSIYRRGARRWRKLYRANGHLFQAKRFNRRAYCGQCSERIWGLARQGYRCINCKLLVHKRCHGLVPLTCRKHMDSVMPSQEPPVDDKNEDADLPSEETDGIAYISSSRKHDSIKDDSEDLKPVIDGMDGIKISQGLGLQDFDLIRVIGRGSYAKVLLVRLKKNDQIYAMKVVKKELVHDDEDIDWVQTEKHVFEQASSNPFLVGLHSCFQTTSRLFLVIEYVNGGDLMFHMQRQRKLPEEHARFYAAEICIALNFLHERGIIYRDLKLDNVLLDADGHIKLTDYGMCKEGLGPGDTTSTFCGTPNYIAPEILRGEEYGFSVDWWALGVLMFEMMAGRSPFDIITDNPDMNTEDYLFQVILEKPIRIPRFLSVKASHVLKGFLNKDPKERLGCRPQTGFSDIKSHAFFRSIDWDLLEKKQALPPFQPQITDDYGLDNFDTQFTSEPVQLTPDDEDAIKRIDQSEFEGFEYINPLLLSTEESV

AurA = target: T2, AurA (Homo sapiens, UniProt O14965); assay: Activity against various protein tyrosine kinases: AurA
T2 sequence (O14965 1-403): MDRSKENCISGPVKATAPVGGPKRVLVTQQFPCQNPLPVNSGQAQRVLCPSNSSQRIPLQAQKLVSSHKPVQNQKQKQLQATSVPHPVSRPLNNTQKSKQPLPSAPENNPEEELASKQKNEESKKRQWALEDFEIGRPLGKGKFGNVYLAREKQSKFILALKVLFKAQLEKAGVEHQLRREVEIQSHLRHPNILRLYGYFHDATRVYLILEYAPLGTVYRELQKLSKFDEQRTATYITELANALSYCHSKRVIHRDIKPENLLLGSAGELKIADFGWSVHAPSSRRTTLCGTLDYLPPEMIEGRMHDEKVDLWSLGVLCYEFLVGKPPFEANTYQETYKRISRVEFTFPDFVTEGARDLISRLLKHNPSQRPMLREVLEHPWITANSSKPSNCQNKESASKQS

BTK = BTK (Homo sapiens, UniProt Q06187); assay: Activity against various protein tyrosine kinases: BTK
BTK, sequence (Q06187 whole entry, species assumed): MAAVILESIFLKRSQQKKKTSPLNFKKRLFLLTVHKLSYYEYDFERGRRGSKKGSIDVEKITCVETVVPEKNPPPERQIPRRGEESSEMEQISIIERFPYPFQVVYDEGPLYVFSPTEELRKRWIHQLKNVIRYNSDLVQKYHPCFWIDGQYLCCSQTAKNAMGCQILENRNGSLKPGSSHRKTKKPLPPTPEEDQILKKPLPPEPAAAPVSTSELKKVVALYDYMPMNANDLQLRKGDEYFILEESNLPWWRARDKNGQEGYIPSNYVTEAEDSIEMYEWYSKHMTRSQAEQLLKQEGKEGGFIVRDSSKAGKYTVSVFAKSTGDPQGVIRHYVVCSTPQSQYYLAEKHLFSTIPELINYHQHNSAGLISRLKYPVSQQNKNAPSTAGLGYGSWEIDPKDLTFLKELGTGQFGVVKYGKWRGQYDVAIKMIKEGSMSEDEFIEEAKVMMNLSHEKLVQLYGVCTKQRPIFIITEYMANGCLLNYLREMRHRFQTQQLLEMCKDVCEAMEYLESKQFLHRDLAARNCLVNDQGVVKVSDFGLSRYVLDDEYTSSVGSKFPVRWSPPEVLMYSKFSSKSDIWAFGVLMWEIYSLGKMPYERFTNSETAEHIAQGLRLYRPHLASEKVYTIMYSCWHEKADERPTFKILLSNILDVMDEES
Protocol: (§1) Using techniques know those of ordinary skill in the art, compounds were tested for activity against various protein tyrosine kinases.

PDGFR_alpha = PDGFR_alpha (Homo sapiens, UniProt P16234); assay: Activity against various protein tyrosine kinases: PDGFR_alpha
PDGFR_alpha, sequence (P16234 24-1089, species assumed): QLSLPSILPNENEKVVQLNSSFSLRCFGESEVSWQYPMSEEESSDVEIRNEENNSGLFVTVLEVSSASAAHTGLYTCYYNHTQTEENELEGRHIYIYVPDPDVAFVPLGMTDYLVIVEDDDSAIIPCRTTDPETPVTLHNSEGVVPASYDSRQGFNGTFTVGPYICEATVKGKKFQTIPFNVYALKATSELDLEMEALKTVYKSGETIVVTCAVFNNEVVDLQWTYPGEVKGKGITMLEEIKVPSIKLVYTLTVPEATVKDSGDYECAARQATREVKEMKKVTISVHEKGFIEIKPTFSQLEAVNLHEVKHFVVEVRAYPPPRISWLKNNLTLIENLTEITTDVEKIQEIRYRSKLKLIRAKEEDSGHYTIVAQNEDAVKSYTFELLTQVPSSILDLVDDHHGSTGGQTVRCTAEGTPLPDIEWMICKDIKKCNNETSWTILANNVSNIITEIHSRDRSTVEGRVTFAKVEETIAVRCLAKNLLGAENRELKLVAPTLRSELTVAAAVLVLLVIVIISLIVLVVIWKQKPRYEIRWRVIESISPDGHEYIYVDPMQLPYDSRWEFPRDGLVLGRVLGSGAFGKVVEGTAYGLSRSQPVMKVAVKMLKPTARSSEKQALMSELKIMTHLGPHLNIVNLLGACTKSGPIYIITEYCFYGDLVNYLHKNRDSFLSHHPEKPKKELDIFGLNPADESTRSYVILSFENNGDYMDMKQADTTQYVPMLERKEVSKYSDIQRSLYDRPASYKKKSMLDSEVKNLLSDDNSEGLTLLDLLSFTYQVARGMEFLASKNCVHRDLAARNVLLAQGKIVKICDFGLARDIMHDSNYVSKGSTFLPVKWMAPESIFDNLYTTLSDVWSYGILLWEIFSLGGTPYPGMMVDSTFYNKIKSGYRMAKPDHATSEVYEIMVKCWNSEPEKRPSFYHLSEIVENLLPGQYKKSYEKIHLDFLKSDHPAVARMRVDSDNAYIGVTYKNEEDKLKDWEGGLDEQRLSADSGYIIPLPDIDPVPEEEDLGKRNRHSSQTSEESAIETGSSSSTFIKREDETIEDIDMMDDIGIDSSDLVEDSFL

IKK-beta = target: T3, IKK-beta (Homo sapiens, UniProt O14920); assay: Activity against various protein tyrosine kinases: IKK-beta
T3 sequence (O14920 1-756): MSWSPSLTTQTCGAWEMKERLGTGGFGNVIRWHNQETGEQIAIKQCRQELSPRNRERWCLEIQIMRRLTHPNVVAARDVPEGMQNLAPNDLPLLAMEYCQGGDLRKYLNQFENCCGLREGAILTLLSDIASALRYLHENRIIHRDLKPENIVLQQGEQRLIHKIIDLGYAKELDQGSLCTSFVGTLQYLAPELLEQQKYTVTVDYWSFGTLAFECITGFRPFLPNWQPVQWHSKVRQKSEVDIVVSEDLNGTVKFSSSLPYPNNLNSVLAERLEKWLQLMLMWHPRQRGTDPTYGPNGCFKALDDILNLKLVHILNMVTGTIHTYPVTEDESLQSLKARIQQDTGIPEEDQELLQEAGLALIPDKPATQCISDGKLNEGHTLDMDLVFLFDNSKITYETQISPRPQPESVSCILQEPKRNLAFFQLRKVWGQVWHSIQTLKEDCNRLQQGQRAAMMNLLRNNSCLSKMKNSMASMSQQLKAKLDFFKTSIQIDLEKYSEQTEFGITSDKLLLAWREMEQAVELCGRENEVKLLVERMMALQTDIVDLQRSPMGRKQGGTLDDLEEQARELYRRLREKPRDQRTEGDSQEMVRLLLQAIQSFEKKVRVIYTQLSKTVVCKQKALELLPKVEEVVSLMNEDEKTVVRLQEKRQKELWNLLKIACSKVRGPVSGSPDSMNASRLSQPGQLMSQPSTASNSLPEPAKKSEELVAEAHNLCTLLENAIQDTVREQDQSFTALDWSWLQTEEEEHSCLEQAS

ABL(Q252H) = ABL(Q252H) (Homo sapiens, UniProt P00519, Q252H); assay: Activity against various protein tyrosine kinases: ABL(Q252H)
Protocol: as §1

AKT1 = AKT1 (Homo sapiens, UniProt P31749); assay: Activity against various protein tyrosine kinases: AKT1
AKT1, sequence (P31749 whole entry, species assumed): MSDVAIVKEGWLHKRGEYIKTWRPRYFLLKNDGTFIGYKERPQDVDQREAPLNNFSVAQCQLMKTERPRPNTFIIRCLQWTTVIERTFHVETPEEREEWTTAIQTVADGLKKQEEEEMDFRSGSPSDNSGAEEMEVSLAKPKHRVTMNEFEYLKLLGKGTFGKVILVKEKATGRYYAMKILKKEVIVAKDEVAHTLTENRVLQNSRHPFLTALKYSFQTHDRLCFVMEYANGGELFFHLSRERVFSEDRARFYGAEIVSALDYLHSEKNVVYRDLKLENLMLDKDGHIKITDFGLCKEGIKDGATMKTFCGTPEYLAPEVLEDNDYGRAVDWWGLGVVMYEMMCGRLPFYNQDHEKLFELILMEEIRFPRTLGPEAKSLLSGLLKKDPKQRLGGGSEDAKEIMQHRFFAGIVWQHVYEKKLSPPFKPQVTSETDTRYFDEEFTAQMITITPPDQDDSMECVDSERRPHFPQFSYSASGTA

PKA = PKA (Homo sapiens, UniProt P17612); assay: Activity against various protein tyrosine kinases: PKA
MSK1 = MSK1 (Homo sapiens, UniProt O75582); assay: Activity against various protein tyrosine kinases: MSK1
MSK1, sequence (O75582 whole entry, species assumed): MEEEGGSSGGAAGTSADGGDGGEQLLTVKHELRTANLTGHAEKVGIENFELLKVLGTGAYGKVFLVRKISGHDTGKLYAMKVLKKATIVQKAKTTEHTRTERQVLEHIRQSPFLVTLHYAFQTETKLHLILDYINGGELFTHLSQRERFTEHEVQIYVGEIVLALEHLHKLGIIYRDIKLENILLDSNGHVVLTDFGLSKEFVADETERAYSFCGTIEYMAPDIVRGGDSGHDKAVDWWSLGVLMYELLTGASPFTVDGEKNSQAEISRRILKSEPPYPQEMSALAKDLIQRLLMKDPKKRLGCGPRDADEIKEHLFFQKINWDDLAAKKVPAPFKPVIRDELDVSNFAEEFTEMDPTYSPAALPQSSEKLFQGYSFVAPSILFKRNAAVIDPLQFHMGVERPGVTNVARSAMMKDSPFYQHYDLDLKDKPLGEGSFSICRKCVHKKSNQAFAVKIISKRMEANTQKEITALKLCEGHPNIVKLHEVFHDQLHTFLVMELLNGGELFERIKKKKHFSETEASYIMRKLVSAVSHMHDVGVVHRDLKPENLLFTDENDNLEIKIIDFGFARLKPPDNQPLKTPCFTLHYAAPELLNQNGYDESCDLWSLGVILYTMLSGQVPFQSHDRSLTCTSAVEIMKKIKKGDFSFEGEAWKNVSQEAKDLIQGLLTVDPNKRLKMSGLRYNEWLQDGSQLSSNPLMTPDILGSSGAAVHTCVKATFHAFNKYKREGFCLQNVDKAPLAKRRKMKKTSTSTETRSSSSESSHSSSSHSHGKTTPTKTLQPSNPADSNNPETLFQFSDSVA

CaMKII (beta) = CaMKII (beta) (Homo sapiens, UniProt Q13554); assay: Activity against various protein tyrosine kinases: CaMKII (beta)

Structure (SMILES) | % Inhibition at 10 nM (PKCz) [%] | % Inhibition at 1 μM (PKCz) [%] | % Inhibition at 10 nM (AurA) [%] | % Inhibition at 1 μM (AurA) [%] | % Inhibition at 10 nM (BTK) [%] | % Inhibition at 1 μM (BTK) [%] | % Inhibition at 10 nM (PDGFR_alpha) [%] | % Inhibition at 1 μM (PDGFR_alpha) [%] | % Inhibition at 10 nM (IKK-beta) [%] | % Inhibition at 1 μM (IKK-beta) [%] | % Inhibition at 10 nM (ABL(Q252H)) [%] | % Inhibition at 1 μM (ABL(Q252H)) [%] | % Inhibition at 10 nM (AKT1) [%] | % Inhibition at 1 μM (AKT1) [%] | % Inhibition at 10 nM (PKA) [%] | % Inhibition at 1 μM (PKA) [%] | % Inhibition at 10 nM (MSK1) [%] | % Inhibition at 1 μM (MSK1) [%] | % Inhibition at 10 nM (CaMKII (beta)) [%] | % Inhibition at 1 μM (CaMKII (beta)) [%]
COCCOCCOCCNC(=O)OCCN1CCN(c2cc(Nc3ncc(C(=O)Nc4c(C)cccc4Cl)s3)nc(C)n2)CC1 [mPEG3-NHCOO-Dasatinib] | −12 | −13 | −7 | 19 | 99 | 100 | 58 | 99 | 0 | 1 | 98 | 99 | 7 | 0 | 3 | 0 | 2 | 1 | 1 | 2
COCCOCCOCCOCCOCCOCCOCCNC(=O)OCCN1CCN(c2cc(Nc3ncc(C(=O)Nc4c(C)cccc4Cl)s3)nc(C)n2)CC1 [mPEG7-NHCOO-Dasatinib] | 5 | −9 | 3 | 28 | 99 | 100 | 46 | 98 | 2 | 2 | 99 | 99 | −1 | 0 | 0 | 2 | 3 | 5 | 1 | 2

Reference: patent US9084828B2, “Oligomer-protein tyrosine kinase inhibitor conjugates” (Nektar Therapeutics, priority 2009, dated 2015)
